Results as given in patent US9844526B2 (priority 2015, dated 2017).
Entries after “also recorded” stand apart in the source; their conditions may differ. Like-named read-outs stand apart in the source and are kept apart here.

How the values were obtained:
[1] = Plasma resveratrol concentrations after capsule intake (HPLC); assay type: in vivo, human; conditions: one hour study, median (interquartile range), baseline 0.00 (0.00, 0.00)
Method: The study included two separate investigations: a one hour study and a two hour study (FIG. 1). […] The two hour study was designed to fully assess and compare the responses to trans-res and ResArgin™.
Participants were randomized by block design to consumed trans-res or ResArgin™ in random order. Randomization was performed by the study coordinator following a predetermined plan formulated via a web-based random number generator. […] The study included two separate investigations: a one hour study and a two hour study (FIG. 6). During each study visit, which took place after an overnight fast, a baseline measurement of PAT and a blood sample were collected, followed by consumption of the assigned treatment. During the one hour study, PAT measurements and blood samples were collected thirty and sixty minutes after the capsules were consumed. During the two hour study, a PAT measurement and blood sample were taken two hours after the capsules were consumed.
Briefly, plasma was treated with acidified methanol [0.5% (v/v) of acetic acid in methanol; precooled to −20° C.] containing an appropriate recovery standard. The mixture was stored at −80 C for 12 hours to allow for cryo-assisted protein precipitation, and then centrifuged for 15 min at 16,500×g. […]

eNOS = conditions: 1 μM; human umbilical vein endothelial cells; cited from earlier work
platelets [2] = conditions: 10 mg daily for three months; cited from earlier work
vascular function = conditions: cited from earlier work
[3] = tested on: Healthy postmenopausal women; assay: Microvascular function by peripheral arterial tonometry (Endo-PAT2000), randomized double-blind crossover trial; assay type: in vivo, human; conditions: combined data
platelets [4] = assay: Platelet function by whole blood/optical lumi-aggregometer after capsule intake; assay type: in vivo, human
Method: Participants were randomized by block design to consumed trans-res or […] random order. Randomization was performed by the study coordinator following a predetermined plan formulated via a web-based random number generator. […] The study included two separate investigations: a one hour study and a two hour study (FIG. 6). During each study visit, which took place after an overnight fast, a baseline measurement of PAT and a blood sample were collected, followed by consumption of the assigned treatment. During the one hour study, PAT measurements and blood samples were collected thirty and sixty minutes after the capsules were consumed. During the two hour study, a PAT measurement and blood sample were taken two hours after the capsules were consumed. Platelet reactivity during clinical screening was assessed by a PFA-100 (Siemens, Deerfield, Ill.), which measures platelet function by simulating arterial hemostasis under blood flow shear stress. During the intervention, platelet function was assessed by a whole blood/optical lumi-aggregometer (Chrono-log Model 700, Havertown, Pa.). Briefly, platelet aggregation was measured via electrical impedence (or electrical resistance), whereas lumi-aggregometry was used to examine aggregation together with adenosine triphosphate (hereafter, “ATP”) release, which is determined with firefly luciferin-luciferase system. […] One of the following agonists was used to stimulate platelets: collagen ([…]), AA (10 μL) or ADP ([…]). ATP release was measured only when platelets were activated with ADP. The aggregation was measured over a period of six minutes, following the addition of an agonist.

cyclooxygenase = conditions: in vitro; cited from earlier work
platelets [5] = conditions: in vitro, 10-1,000 μM, dose dependent; cited from earlier work
platelets [6] = conditions: 4 mg/kg/day; cited from earlier work
[7] = 10 mg per day for three months, stable coronary artery disease patients
[8] = platelets stimulated with 1 μL collagen, one hour post consumption of 90 mg
[9] = platelets stimulated with 10 μL arachidonic acid, one hour after intake of 90 mg

Plasma resveratrol concentration ([1]; 30 minutes after intake of 90 mg) | Plasma resveratrol concentration ([1]; 60 minutes after intake of 90 mg) | Compound | Expression of eNOS (eNOS) | Platelet aggregation (platelets [2]) | FMD response (vascular function; [7]) | FMD response (vascular function; 75 mg daily for six weeks) | FMD response (vascular function; 75 mg, one hour post-consumption) | FMD response (vascular function; single dose of 30, 90 and 270 mg, one hour after consumption) | AI@75 (AI normalized to a heart rate of 75 beats per minute), change ([3]; 90 mg) | RHI ([3]; 1 hour after intake, ResArgin baseline 2.119±0.085) | FRHI, change from baseline ([3]; one and two hours after intake) | Slope, change from baseline (platelets [4]; lumi-aggregometry with 10 μL ADP, one hour post consumption of 90 mg) | Lag time, change from baseline (platelets [4]; [8]) | Slope, change from baseline (platelets [4]; [8]) | Area under the curve (AUC) of aggregation, change from baseline (platelets [4]; [9]) | Maximum aggregation, change from baseline (platelets [4]; [9]) | Platelet function, change from baseline (platelets [4]; stimulation with 5 μL collagen, one hour post consumption of 90 mg) | Cyclooxygenase (COX) activity (cyclooxygenase) | Platelet aggregation (platelets [5]) | ADP-induced platelet aggregation (platelets [6])
2.04 (0.82, 2.54) | 2.65 (1.69, 3.44) | Oc1ccc(/C=C/c2cc(O)cc(O)c2)cc1 [trans-res, Trans-resveratrol] | up-regulated | significantly reduced | significant improvement | significant increase | significant increase | increase | No significant changes | not observed | No differences were observed; also recorded: no changes | significant decrease | significant increase | not | no changes | no changes | no significant changes | inhibit | significantly reduced | 
 |  | Oc1ccc(C=Cc2cc(O)cc(O)c2)cc1 [Resveratrol, 3,5, 4′-trihydroxystilbene] |  |  | enhanced | enhanced |  |  |  |  |  |  |  |  |  |  |  |  |  | inhibited
